This note sets out measurements from patent publication US20160153998A1, “BIOMARKERS FOR PREDICTING THE SENSITIVITY OF CELLS TO IMMUNOMODULATORY COMPOUNDS DURING TREATMENT OF NON-HODGKIN'S LYMPHOMA” (Celgene Corporation, priority 2007, published 2016).

What all share (type): cell-based
Assay [1] deals with Namalwa cells. The assay is described as follows: Real-time RT-PCR gene expression in Namalwa cells. The protocol:
(§1) After the cell treatment, total RNA was purified. Real-time PCR was performed with 100 ng of total RNA, using an Applied Biosystems 7500 instrument (Applied Biosystems, Foster City, Calif.) using TaqMan Sequence Detection chemistry which uses a fluorogenic probe (FAM) to enable the detection of a specific PCR product as it accumulates during PCR. Samples were prepared in triplicate in 50 μl reaction volumes. The 50 μl reactions consisted of 25 μl 2× TaqMan PCR master mix, 2.5 μl of 20× gene expression assay, 10 μl of RNA ([…]) and 12.5 μl water. Glyceraldehyde-3-phosphate dehydrogenase (GAPDH) was used as the endogenous control to ensure equal RNA amounts in each sample.
(§2) TaqMan® Gene Expression Assays were pre-formulated gene expression assays for rapid, reliable detection and quantification of human, mouse and rat mRNA transcripts. The PCR program used was: 50° C. for 2 minutes, 95° C. for 10 minutes, 40 cycles of 95° C. for 15 seconds, 60° C. for 1 minute. Data was analyzed using 7500 Real-Time PCR System Sequence Detection software v1.3 using the comparative CT relative quantification calculation method. The output was expressed as a fold-change of expression levels. The threshold level was selected to be automatically determined by the software and was set to be above the baseline but sufficiently low to be within the exponential growth region of an amplification curve. The cycle number at which the fluorescence signal associated with a particular amplicon accumulation crosses the threshold is referred to as the CT.
The effect of the administration of 1-oxo-2-(2,6-dioxopiperidin-3-yl)-4-aminoisoindoline in Namalwa cells after 48 hours of drug treatment was measured.
The effect of administration of 1-oxo-2-(2,6-dioxopiperidin-3-yl)-4-aminoisoindoline at various time points from 0 to 48 hours in the fold change in expression of several genes was measured in Namalwa cells (FIG. 11).
On the technique in general: Quantitative PCR measures a nucleic acid by following its amplification.

Assay [2] has as its system NHL cell lines (Namalwa, Jeko-1, Rec-1, Granta-519, DB, JVM-2). Put plainly: NHL cell proliferation, 3H-thymidine incorporation. As for the experimental part: (§3) NHL cell proliferation was assessed by 3H-thymidine incorporation assay. Briefly, cells were cultured in 96 well cell culture plates in complete RPMI-1640 medium in the presence and absence of drugs. Following incubation at 37° C. for 3 days, 1 μCi 3H-thymidine was added to each well for the last 5 hours of incubation. The 3H incorporation of each well was then measured.
(§4) To better understand how the effectiveness of immunomodulatory compound administration varies among different cancer cell types, the immunomodulatory compound 1-oxo-2-(2,6-dioxopiperidin-3-yl)-4-aminoisoindoline was tested in vitro for its anti-proliferative effect in several NHL cell lines after 1-3 days of treatment. The method utilized ^3H-thymidine incorporation, microbead array technology and real time PCR. The six tested cell lines were Namalwa, Jeko-1, Rec-1, Granta-519, DB, and JVM-2.
In general terms: Incorporation of labelled thymidine or its analogues reports DNA synthesis.

Assay [3] relates to Jeko-1 cells. Put plainly: Real-time RT-PCR mRNA levels in Jeko-1 cells. As to conditions: 24 hours. As for the experimental part:
as §1, §2
Jeko-1 cells were treated with immunomodulatory compounds, with or without dexamethasone (10 nM) for 24 hours. Total RNA was then isolated from the treated cells, and the samples were subjected to real-time RT-PCR analysis to determine gene transcription at the mRNA level. […] 1,3-dioxo-2-(2,6-dioxopiperidin-3-yl)-4-aminoisoindoline (at 10 μM) enhanced mRNA levels of these genes up to about 3-fold. 1-oxo-2-(2,6-dioxopiperidin-3-yl)-4-aminoisoindoline (1 μM) enhanced activin A mRNA level up to 2.6-fold, and SPARC was enhanced at 10 μM.

The test system of assay [4] is Rec-1 cells. The assay is described as follows: Rec-1 cell growth in the presence of rhVEGF or anti-VEGF antibody. As to conditions: Rec-1 cells (FIG. 8). As for the experimental part:
as §3

A further assay relates to Granta-519 cells. Put plainly: Luminex assay for VEGF production, Granta-519. As to conditions: 3 days. As for the experimental part: (§5) Cells were treated with the drug for 3 days in 96 well plates. Cell culture supernatants were then collected for measurement of VEGF using Luminex/xMAP® technology.
(§6) 1-oxo-2-(2,6-dioxopiperidin-3-yl)-4-aminoisoindoline inhibited the production of the pro-angiogenic growth factor VEGF from anti-proliferation sensitive NHL cells, such as Namalwa, Jeko-1 and Rec-1 cells.

Assay [5] concerns Rec-1 cells. Put plainly: Real-time PCR gene expression in Rec-1 cells. As to conditions: 1, 10 or 100 μM, 24 or 48 hours, alone or with dexamethasone 10 nM. As for the experimental part:
as §1, §2
The effect of 1,3-dioxo-2-(2,6-dioxopiperidin-3-yl)-4-aminoisoindoline or 1-oxo-2-(2,6-dioxopiperidin-3-yl)-4-aminoisoindoline, either alone or in combination with Dexamethasone (10 nM) on the expression of several important genes involved in the regulation of NHL cell proliferation and survival was determined using Rec-1 cells (FIG. 1). The immunomodulatory compounds 1,3-dioxo-2-(2,6-dioxopiperidin-3-yl)-4-aminoisoindoline or 1-oxo-2-(2,6-dioxopiperidin-3-yl)-4-aminoisoindoline were added to the Rec-1 cells at a final concentration of 1, 10, or 100 μM. After 24 or 48 hours of incubation with 1,3-dioxo-2-(2,6-dioxopiperidin-3-yl)-4-aminoisoindoline or 1-oxo-2-(2,6-dioxopiperidin-3-yl)-4-aminoisoindoline, gene expression of VEGF, p21, p53, and cyclin D1 was measured using real-time PCR.

The subject of a further assay is NHL cells. The assay is described as follows: Real-time RT-PCR gene expression in NHL cell lines. The protocol: as §1, §2
The effect of the administration of 1-oxo-2-(2,6-dioxopiperidin-3-yl)-4-aminoisoindoline in various NHL cells was measured after 24 hours of incubation, using real-time RT-PCR (FIG. 9).

The next assay has as its system sensitive NHL cells. Put plainly: Luminex assay for VEGF production, sensitive NHL cells. As for the experimental part: as §5, §6
Assay [6] deals with Namalwa cells. Put plainly: Proliferation of Namalwa cells after SPARC siRNA knockdown. As to conditions: SPARC siRNA 200 nM, drug for 2 days. The protocol:
as §3
Cells were transfected with SPARC or cyclophilin siGENME SMARTpool (Dharmacon, Lafayette, Colo.) at final concentration of 200 nM using DharmaFECT 2 transfection reagents following the manufacturer's protocol. After 24 hours of transfection, cells were then treated with the drug for 2 days.
SPARC siRNA was transfected to Namalwa cells to determine the effect of a SPARC knockdown on the antiproliferative effect of 1-oxo-2-(2,6-dioxopiperidin-3-yl)-4-aminoisoindoline in Namalwa cells. The anti-proliferative effect of 1-oxo-2-(2,6-dioxopiperidin-3-yl)-4-aminoisoindoline is weaker after SPARC knockdown compared to mock transfected control cells.

The subject of assay [7] is Namalwa cells. Put plainly: Luminex assay for VEGF production, Namalwa. As to conditions: 3 days. As for the experimental part: as §5, §6
A further assay has as its system DB cell line. Put plainly: NHL cell proliferation, 3H-thymidine incorporation, DB cells. To be noted: DB (t(14;18)) cells. As for the experimental part:
as §3, §4

A further assay concerns DB cells. The assay is described as follows: Luminex assay for VEGF production, DB. To be noted: 3 days. The protocol:
as §5, §6

The subject of assay [8] is Rec-1 cells. Put plainly: Luminex assay for VEGF production, Rec-1. To be noted: 3 days. The protocol:
as §5, §6

Assay [9] has as its system Jeko-1 cells. The assay is described as follows: Luminex assay for VEGF production, Jeko-1. To be noted: 3 days. As for the experimental part:
as §5, §6

Setting [10] is: Namalwa cells, 10 μM, 2-48 hours.

Take `C[C@@H]1C[C@H]2[C@@H]3CCC4=CC(=O)C=C[C@]4(C)[C@@]3(F)[C@@H](O)C[C@]2(C)[C@@]1(O)C(=O)CO` [dexamethasone]: the SPARC expression entry in the assay with Namalwa cells [1] (dexamethasone alone, NHL cells such as Namalwa) is listed as “no effect”.
`Nc1cccc2c1CN(C1CCC(=O)NC1=O)C2=O` (centres unmarked) [1-oxo-2-(2,6-dioxopiperidin-3-yl)-4-aminoisoindoline]: the “anti-proliferative activity against NHL cells” value in assay [2] (1-3 days of treatment) is given as “demonstrated anti-proliferative activity”. Besides, the “order of sensitivity of NHL cell lines to the compound” value in assay [2] (3 day incubation) is “Namalwa>Rec-1>Jeko-1>Granta-519>JVM-2>DB”. Moreover, in the assay with Jeko-1 cells [3] (1 μM), the “enhancement of activin A mRNA level” value was “up to 2.6 fold”. For the same molecule, the “SPARC mRNA level” value in the assay on Jeko-1 cells [3] (10 μM) is given as “enhanced”. For the same molecule, the “anti-proliferative activity on addition of exogenous recombinant human VEGF (in excess) or neutralizing VEGF antibody” value with Rec-1 cells [4] is recorded as “does not affect”. Moreover, the “production of VEGF” value with Granta-519 cells is listed as “fails to inhibit”; with Namalwa cells [7] it was “inhibited”; in the assay on DB cells, “fails to inhibit”; in the assay with Rec-1 cells [8], “inhibited”; in the assay on Jeko-1 cells [9] it was “inhibited”. The “VEGF mRNA level” value in the assay on Rec-1 cells [5] is given as “decrease”. Also, the “p21 mRNA level” value in the assay with Rec-1 cells [5] is reported as “increase”. In addition, the “VEGF mRNA expression” value in the assay on NHL cells (NHL cells) was “does not inhibit”. Besides, the “p21 in sensitive and resistant (DB) cells” value in the assay with NHL cells (both sensitive and resistant (DB) cells) was “elevated p21 was observed”. Further, the “elevation of SPARC mRNA in resistant cells” value with NHL cells (resistant cells) is on record as “not seen”. Moreover, the SPARC expression result in the assay with NHL cells (sensitive NHL cells, 24 hours) is “increased”. In addition, the p21cip/kip expression result with NHL cells (sensitive NHL cells, 24 hours) was “increased”; in the assay with NHL cells (several cell lines), “increased”. Further, the “SPARC mRNA expression” value in the assay with NHL cells (several NHL cell lines) is “increased expression of SPARC mRNA”. In addition, the “concentrations for the effect on VEGF compared with anti-proliferative effects” value with sensitive NHL cells was “well below levels required for anti-proliferative effects”. The “production of the proangiogenic growth factor VEGF” value in the assay on sensitive NHL cells (FIG. 7) is reported as “inhibits”. For the same molecule, the “anti-proliferative effect after SPARC knockdown compared to mock transfected control cells” value in the assay on Namalwa cells [6] is given as “weaker”. Moreover, in the assay on Namalwa cells [1] (setting [10]), the “change in expression of BlyS” value is “did not exhibit a significant change”. In the assay with Namalwa cells [1] (setting [10]), the “change in expression of VEGF” value was “did not exhibit a significant change”. For the same molecule, in the assay on Namalwa cells [1] (setting [10]), the “change in expression of cyclin D1” value is “did not exhibit a significant change”. In addition, the “change in expression of p53/p73” value in the assay on Namalwa cells [1] (setting [10]) is “did not exhibit a significant change”. The “cell proliferation of DB cell line” value in the assay on DB cell line is recorded as “increased rate of cell proliferation”.
For the molecule `Nc1cccc2c1C(=O)N(C1CCC(=O)NC1=O)C2=O` (centres unmarked) [1,3-dioxo-2-(2,6-dioxopiperidin-3-yl)-4-aminoisoindoline], in the assay with Jeko-1 cells [3] (10 μM), the “enhancement of mRNA levels of p21, activin A and SPARC” value was “about 3 fold”. Also, in the assay on Jeko-1 cells [3] (1-10 μM), the “SPARC mRNA level” value is recorded as “up-regulate”, the “activin A mRNA level” value is listed as “up-regulate” and the “p21 mRNA level” value was “up-regulate”. For the same molecule, the “effect on p21” value in the assay with Jeko-1 cells [3] is “clear enhancing effect”. In the assay with Rec-1 cells [5], the “VEGF mRNA level” value was “decrease” and the “p21 mRNA level” value is recorded as “increase”.
